Assay results taken from patent US4024224A, “14-Aminodaunomycins, their preparation and use” (priority 1974, dated 1977).
In brackets after ≈: the same amount, converted by molar mass. Where two headings read alike, the source gives them in different places.

Legend:
[1] = test system: Moloney Sarcoma Virus (MSV); test: Inhibition of MSV-M foci formation in mouse embryo fibroblasts; type: cell-based; conditions: Fibroblast, 120 h; for IC50: read-out: MSV-M foci ID 50 (Inhibiting Dose 50%); for activity at 0.1 µg/mL: dose 0.1 μg/ml; for activity at 0.4 µg/mL: dose 0.4 μg/ml
Description: (§1) Mouse embryo fibroblasts (MEF) were plated on 35 mm. Falcon plastic dishes and infected 24 hours later with Moloney Sarcoma Virus (MSV) in the presence of DEAE-dextran (25 μg./ml.). The samples were then treated for 3 days with different concentrations of the compounds of the invention. The number of foci of transformed cells was microscopically determined 5 days after the infection. Uninfected MEF were similarly treated and at the end of the experiment, the cells were counted in an haemocytometer. In all the experiments, the cells were incubated in a 5% CO2 incubator at 37° C.
(§2) For use in these tests the compounds were dissolved in distilled water or in 5% ethyl alcohol in distilled water and then diluted in culture medium.
The results of these tests are reported in Table I in terms of ID50 values (Inhibiting Dose 50%), calculated on dose-effects lines.

[2] = test system: Mouse Embryo Fibroblasts; test: Proliferation of uninfected mouse embryo fibroblasts (MEF); type: cell-based; conditions: Mus musculus, Fibroblast, 72 h, read-out: MEF No. of cells; for activity at 0.1 µg/mL: dose 0.1 μg/ml; for activity at 0.4 µg/mL: dose 0.4 μg/ml
Description: as §1, §2

[3] = as above; type: cell-based; conditions: mouse, mouse embryo fibroblasts; calculated on dose-effects lines; uninfected MEF, 3 days treatment; read-out: MEF proliferation ID 50 (Inhibiting Dose 50%)
Description: as §1, §2

[4] = test system: ascites Sarcoma 180; test: Antitumor activity and toxicity on ascites Sarcoma 180 in CD 1 mice; type: in vivo; conditions: for % LTS: 60 days; for LTS (Long Term Survivors after 60 days): survivors/total; for Toxic Deaths: deaths/total
Description: (§3) The antitumor activity of the compounds of the invention was tested on ascites Sarcoma 180.
(§4) Three month old CD 1 mice were used. Sarcoma 180 ascites cells were inoculated intraperitoneally (10^6 cells/mouse). For use in these tests, the compounds were dissolved in distilled water or in 5% ethyl alcohol in distilled water, then diluted with Ringers solution and administered i.p. 1 day after the tumor implant (10 ml./kg. of body weight).
(§5) The toxicity of the test compounds was evaluated by macroscopic autoptic examination mainly in terms of reduction in spleen size. The comparison of the effectiveness of the test compounds is based on the maximum increase in median survival time, as compared to untreated controls, over the dose range used. The number of Long Term Survivors (LTS) refers to tumor-free mice at the end of the experiment (60 days). Solid Sarcoma 180 was implanted subcutaneously by trocar in the flank of CD 1 mice according to standard methods. The mice were treated i.v. for 5 consecutive days, starting 1 day after the tumor implant. On the 11th day the tumor volume was measured by means of a caliper and evaluated according to the formula (a^2 × b)/2, a and b being the minimum and the maximum diameters respectively.

[5] = as above; type: in vivo; conditions: mouse, in vivo, ip, read-out: % Toxic Deaths
Description: as §3, §4, §5

[6] = calculated on dose-effects lines, 3 days treatment
[7] = dose 0.0062 μg/ml, 3 days treatment, foci counted 5 days after infection, read-out: MSV-M No. of foci
[8] = dose 0.0250 μg/ml, 3 days treatment, foci counted 5 days after infection, read-out: MSV-M No. of foci
[9] = 3 days treatment, foci counted 5 days after infection, read-out: MSV-M No. of foci
[10] = dose 0.0062 μg/ml, uninfected MEF, 3 days treatment
[11] = dose 0.0250 μg/ml, uninfected MEF, 3 days treatment
[12] = uninfected MEF, 3 days treatment
[13] = 0.2 mg./kg. i.p. 1 day after tumor implant
[14] = 1 mg./kg. i.p. 1 day after tumor implant
[15] = 5 mg./kg. i.p. 1 day after tumor implant
[16] = 12.5 mg./kg. i.p. 1 day after tumor implant
[17] = 25 mg./kg. i.p. 1 day after tumor implant
[18] = 50 mg./kg. i.p. 1 day after tumor implant
[19] = 10 mg./kg. i.p. 1 day after tumor implant

SMILES | IC50 [1, 6] | activity at 0.0062 µg/mL [1, 7] | activity at 0.025 µg/mL [1, 8] | activity at 0.1 µg/mL [1, 9] | activity at 0.4 µg/mL [1, 9] | IC50 at 72 h [3] | % LTS [4, 13] | LTS (Long Term Survivors after 60 days) [4, 13] | Toxic Deaths ([4]; 0.2 mg./kg. i.p.) | T/C (median survival time, % over untreated controls) [4, 14] | % LTS [4, 14] | LTS (Long Term Survivors after 60 days) [4, 14] | Toxic Deaths ([4]; 1 mg./kg. i.p.) | T/C (median survival time, % over untreated controls) [4, 15] | % LTS [4, 15] | LTS (Long Term Survivors after 60 days) [4, 15] | Toxic Deaths ([4]; 5 mg./kg. i.p.) | mortality ([5]; 0.2 mg./kg. i.p.) | mortality ([5]; 1 mg./kg. i.p.) | mortality ([5]; 5 mg./kg. i.p.) | further results
COc1cccc2c1C(=O)c1c(O)c3c(c(O)c1C2=O)C[C@@](O)(C(=O)CN1CCCCC1)C[C@@H]3O[C@H]1C[C@H](N)[C@H](O)[C@H](C)O1 [14-(N-piperidino)-daunomycin] | 0.08 µg/mL (≈ 0.131 µM) | 100% | 89% | 42% | 0% | 0.1 µg/mL (≈ 0.164 µM) | 0% | 0/10 | 0/10 | 100% | 0% | 0/10 | 0/10 | 140% | 20% | 2/10 | 0/10 | 0% | 0% | 0% | activity at 0.0062 µg/mL [2, 10]: 87%; activity at 0.025 µg/mL [2, 11]: 71%; activity at 0.1 µg/mL [2, 12]: 58%; activity at 0.4 µg/mL [2, 12]: 24%; T/C (median survival time, % over untreated controls) [4, 13]: 103%; T/C (median survival time, % over untreated controls) [4, 16]: 200%; % LTS [4, 16]: 20%; LTS (Long Term Survivors after 60 days) [4, 16]: 2/10; Toxic Deaths ([4]; 12.5 mg./kg. i.p.): 0/10; T/C (median survival time, % over untreated controls) [4, 17]: 218%; % LTS [4, 17]: 20%; LTS (Long Term Survivors after 60 days) [4, 17]: 2/10; Toxic Deaths ([4]; 25 mg./kg. i.p.): 0/10; T/C (median survival time, % over untreated controls) [4, 18]: 144%; % LTS [4, 18]: 20%; LTS (Long Term Survivors after 60 days) [4, 18]: 2/10; Toxic Deaths ([4]; 50 mg./kg. i.p.): 4/10; mortality ([5]; 12.5 mg./kg. i.p.): 0%; mortality ([5]; 25 mg./kg. i.p.): 0%; mortality ([5]; 50 mg./kg. i.p.): 40%
COc1cccc2c1C(=O)c1c(O)c3c(c(O)c1C2=O)C[C@@](O)(C(=O)CN1CCN(CCO)CC1)C[C@@H]3O[C@H]1C[C@H](N)[C@H](O)[C@H](C)O1 [14-[N-(N'-hydroxyethyl)piperazino]-daunomycin] | 0.045 µg/mL (≈ 0.0686 µM) | 71% | 64% | 43% | 2% | 0.08 µg/mL (≈ 0.122 µM) | 0% | 0/10 | 0/10 | 103% | 0% | 0/10 | 0/10 | 103% | 10% | 1/10 | 0/10 | 0% | 0% | 0% | activity at 0.0062 µg/mL [2, 10]: 67%; activity at 0.025 µg/mL [2, 11]: 64%; activity at 0.1 µg/mL [2, 12]: 52%; activity at 0.4 µg/mL [2, 12]: 31%; T/C (median survival time, % over untreated controls) [4, 13]: 103%; T/C (median survival time, % over untreated controls) [4, 16]: 152%; % LTS [4, 16]: 0%; LTS (Long Term Survivors after 60 days) [4, 16]: 0/10; Toxic Deaths ([4]; 12.5 mg./kg. i.p.): 0/10; T/C (median survival time, % over untreated controls) [4, 17]: 222%; % LTS [4, 17]: 10%; LTS (Long Term Survivors after 60 days) [4, 17]: 1/10; Toxic Deaths ([4]; 25 mg./kg. i.p.): 0/10; T/C (median survival time, % over untreated controls) [4, 18]: 152%; % LTS [4, 18]: 0%; LTS (Long Term Survivors after 60 days) [4, 18]: 0/10; Toxic Deaths ([4]; 50 mg./kg. i.p.): 3/10; mortality ([5]; 12.5 mg./kg. i.p.): 0%; mortality ([5]; 25 mg./kg. i.p.): 0%; mortality ([5]; 50 mg./kg. i.p.): 30%
COc1cccc2c1C(=O)c1c(O)c3c(c(O)c1C2=O)C[C@@](O)(C(=O)CN1CCN(C)CC1)C[C@@H]3O[C@H]1C[C@H](N)[C@H](O)[C@H](C)O1 [14-[N-(N'-methyl)-piperazino]-daunomycin] | 0.011 µg/mL (≈ 0.0176 µM) | 60% | 35% | 19% | 0% | 0.09 µg/mL (≈ 0.144 µM) | 0% | 0/10 | 0/10 | 103% | 0% | 0/10 | 0/10 | 116% | 0% | 0/10 | 0/10 | 0% | 0% | 0% | activity at 0.0062 µg/mL [2, 10]: 67%; activity at 0.025 µg/mL [2, 11]: 64%; activity at 0.1 µg/mL [2, 12]: 56%; activity at 0.4 µg/mL [2, 12]: 23%; T/C (median survival time, % over untreated controls) [4, 13]: 119%; T/C (median survival time, % over untreated controls) [4, 16]: 167%; % LTS [4, 16]: 30%; LTS (Long Term Survivors after 60 days) [4, 16]: 3/10; Toxic Deaths ([4]; 12.5 mg./kg. i.p.): 1/10; T/C (median survival time, % over untreated controls) [4, 17]: 226%; % LTS [4, 17]: 30%; LTS (Long Term Survivors after 60 days) [4, 17]: 3/10; Toxic Deaths ([4]; 25 mg./kg. i.p.): 0/10; T/C (median survival time, % over untreated controls) [4, 18]: 130%; % LTS [4, 18]: 10%; LTS (Long Term Survivors after 60 days) [4, 18]: 1/10; Toxic Deaths ([4]; 50 mg./kg. i.p.): 5/10; mortality ([5]; 12.5 mg./kg. i.p.): 10%; mortality ([5]; 25 mg./kg. i.p.): 0%; mortality ([5]; 50 mg./kg. i.p.): 50%
COc1cccc2c1C(=O)c1c(O)c3c(c(O)c1C2=O)C[C@@](O)(C(=O)CO)C[C@@H]3O[C@H]1C[C@H](N)[C@H](O)[C@H](C)O1 [Adriamycin, reference compound] |  |  |  |  |  | 0.01 µg/mL (≈ 0.0184 µM) | 16% | 5/30 | 0/30 | 177% | 45% | 13/29 | 0/29 | 200% | 19% | 9/47 | 5/47 | 0% | 0% | 10% | activity at 0.0062 µg/mL ([1]; read-out: MSV-M No. of foci): 46%; activity at 0.0125 µg/mL ([1]; read-out: MSV-M No. of foci): 24%; activity at 0.025 µg/mL ([1]; read-out: MSV-M No. of foci): 0%; IC50 [1]: 0.005 µg/mL (≈ 0.0092 µM); activity at 0.0062 µg/mL [2]: 61%; activity at 0.0125 µg/mL [2]: 42%; activity at 0.025 µg/mL [2]: 37%; % LTS [4, 19]: 0%; LTS (Long Term Survivors after 60 days) [4, 19]: 0/10; Toxic Deaths ([4]; 10 mg./kg. i.p.): 2/10; mortality ([5]; 10 mg./kg. i.p.): 20%
